From US6479435B1, “Diaryl ethers and processes for their preparation and herbicidal and desiccant compositions containing them” (ISK Americas Incorporated, priority 1997, dated 2002)

Tests used:
Format in all cases: in vivo
[1] = system: Johnsongrass (Sorghum halepense, SORHA); experiment: Post-emerge greenhouse herbicide test, phytotoxicity rating; details: 14 days after application
Outline: (§1)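 Scores use a 0 (no damage) to 100 (complete kill) scale, taken 14 days after a foliar spray. Acetone solutions with 0.25% v/v non-ionic surfactant were applied by track sprayer at 187 l/ha and 63-1000 g ai/ha to bottom-watered 2-3 leaf plants.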

[2] = system: large crabgrass (Digitaria sanguinalis, DIGSA); experiment: as above; details: 14 days after application; for phytotoxicity rating DIGSA: scale 0-100
Outline: as §1

[3] = system: redroot pigweed (Amaranthus retroflexus, AMARE); experiment: as above; details: 14 days after application; for phytotoxicity rating AMARE: scale 0-100
Outline: as §1

[4] = system: barnyardgrass (Echinochloa crusgalli, ECHCG); experiment: as above; details: 14 days after application; for phytotoxicity rating ECHCG: scale 0-100
Outline: as §1

[5] = system: lambsquarters (Chenopodium album, CHEAL); experiment: as above; details: 14 days after application; for phytotoxicity rating CHEAL: scale 0-100
Outline: as §1

[6] = system: green foxtail (Setaria viridis, SETVI); experiment: as above; details: 14 days after application; for phytotoxicity rating SETVI: scale 0-100
Outline: as §1

[7] = system: velvetleaf (Abutilon theophrasti, ABUTH); experiment: as above; details: 14 days after application; for phytotoxicity rating ABUTH: scale 0-100
Outline: as §1

[8] = system: ivyleaf morningglory (Ipomoea hederacea, IPOHE); experiment: as above; details: 14 days after application; for phytotoxicity rating IPOHE: scale 0-100
Outline: as §1

[9] = system: common ragweed (Ambrosia artemisiifolia L., AMBEL); experiment: as above; details: 14 days after application; for phytotoxicity rating AMBEL: scale 0-100
Outline: as §1

[10] = system: upland rice (Oryza sp., var.Tebonnet, RICE); experiment: Post-emerge greenhouse test, crop damage rating; details: 14 days after application; for crop damage rating RICE: scale 0-100
Outline: as §1

[11] = system: field corn (Zea mays L., var. Dekalb 535, CORN); experiment: Post-emerge greenhouse test, crop damage rating; details: 14 days after application; for crop damage rating CORN: scale 0-100
Outline: as §1

[12] = system: soybean (Glycine max L., var. Pella 86, SOY); experiment: Pre-emerge greenhouse test, crop damage rating; set-up: key to SOY crop damage rating: 0 = no damage, 100 = complete death of all plants; details: 14 days after application, rating scale 0-100
Outline: (§2)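 Visual 0–100 injury rating (100 = all plants dead) taken 14 days after treatment. Rates of 125–1000 g ai/ha in acetone, 187 l/ha, were sprayed onto soil one day post-sowing; pots were surface-watered to incorporate, then bottom-watered.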

[13] = system: Johnsongrass (Sorghum halepense, SORHA); experiment: Pre-emerge greenhouse herbicide test, phytotoxicity rating; details: 14 days after application, rating scale 0-100
Outline: as §2

[14] = system: common ragweed (Ambrosia artemisiifolia L., AMBEL); experiment: as above; details: 14 days after application, rating scale 0-100
Outline: as §2

[15] = system: large crabgrass (Digitaria sanguinalis, DIGSA); experiment: as above; details: 14 days after application, rating scale 0-100
Outline: as §2

[16] = system: redroot pigweed (Amaranthus retroflexus, AMARE); experiment: as above; details: 14 days after application, rating scale 0-100
Outline: as §2

[17] = system: barnyardgrass (Echinochloa crusgalli, ECHCG); experiment: as above; details: 14 days after application, rating scale 0-100
Outline: as §2

[18] = system: sicklepod (Cassia obtusifolia, CASOB); experiment: as above; details: 14 days after application, rating scale 0-100
Outline: as §2

[19] = system: lambsquarters (Chenopodium album, CHEAL); experiment: as above; details: 14 days after application, rating scale 0-100
Outline: as §2

[20] = system: green foxtail (Setaria viridis, SETVI); experiment: as above; details: 14 days after application, rating scale 0-100
Outline: as §2

[21] = system: velvetleaf (Abutilon theophrasti, ABUTH); experiment: as above; details: 14 days after application, rating scale 0-100
Outline: as §2

[22] = system: ivyleaf morningglory (Ipomoea hederacea, IPOHE); experiment: as above; details: 14 days after application, rating scale 0-100
Outline: as §2

[23] = system: upland rice (Oryza sp., var.Tebonnet, RICE); experiment: Pre-emerge greenhouse test, crop damage rating; details: 14 days after application, rating scale 0-100
Outline: as §2

[24] = system: field corn (Zea mays L., var. Dekalb 535, CORN); experiment: Pre-emerge greenhouse test, crop damage rating; details: 14 days after application, rating scale 0-100
Outline: as §2

[25] = system: soybean (Glycine max L., var. Pella 86, SOY); experiment: Post-emerge greenhouse test, crop damage rating; set-up: key to crop damage rating SOY: 0-100 scale: 0 = no damage, 100 = complete death of all plants; details: 14 days after application; for crop damage rating SOY: scale 0-100
Outline: as §1

SMILES: Cn1nc(-c2cc(Oc3ncccc3C(F)(F)F)c(Cl)cc2F)c(Cl)c1C(F)(F)F [Compound 1-2]
- SORHA phytotoxicity rating (0-100) ([1]; 63 g al/ha): 20
- SORHA phytotoxicity rating (0-100) ([1]; 500 g al/ha): 40
- DIGSA phytotoxicity rating (0-100) ([2]; 63 g al/ha): 0
- DIGSA phytotoxicity rating (0-100) ([2]; 500 g al/ha): 50
- AMARE phytotoxicity rating (0-100) ([3]; 63 g al/ha): 80
- AMARE phytotoxicity rating (0-100) ([3]; 500 g al/ha): 100
- ECHCG phytotoxicity rating (0-100) ([4]; 63 g al/ha): 0
- ECHCG phytotoxicity rating (0-100) ([4]; 500 g al/ha): 80
- CHEAL phytotoxicity rating (0-100) ([5]; 63 g al/ha): 70
- CHEAL phytotoxicity rating (0-100) ([5]; 500 g al/ha): 100
- SETVI phytotoxicity rating (0-100) ([6]; 63 g al/ha): 0
- SETVI phytotoxicity rating (0-100) ([6]; 500 g al/ha): 40
- ABUTH phytotoxicity rating (0-100) ([7]; 63 g al/ha): 30
- ABUTH phytotoxicity rating (0-100) ([7]; 500 g al/ha): 100
- IPOHE phytotoxicity rating (0-100) ([8]; 63 g al/ha): 30
- IPOHE phytotoxicity rating (0-100) ([8]; 500 g al/ha): 90
- AMBEL phytotoxicity rating (0-100) ([9]; 63 g al/ha): 30
- AMBEL phytotoxicity rating (0-100) ([9]; 500 g al/ha): 90
- RICE crop damage rating (0-100) ([10]; 63 g al/ha): 0
- RICE crop damage rating (0-100) ([10]; 500 g al/ha): 0
- CORN crop damage rating (0-100) ([11]; 63 g al/ha): 0
- CORN crop damage rating (0-100) ([11]; 500 g al/ha): 10
- crop damage rating SOY ([12]; 125 g ai/ha): 0
- crop damage rating SOY ([12]; 500 g ai/ha): 10
- phytotoxicity rating SORHA ([13]; 125 g ai/ha): 30
- phytotoxicity rating SORHA ([13]; 500 g ai/ha): 50
- phytotoxicity rating AMBEL ([14]; 125 g ai/ha): 80
- phytotoxicity rating AMBEL ([14]; 500 g ai/ha): 80
- phytotoxicity rating DIGSA ([15]; 125 g ai/ha): 40
- phytotoxicity rating DIGSA ([15]; 500 g ai/ha): 95
- phytotoxicity rating AMARE ([16]; 125 g ai/ha): 80
- phytotoxicity rating AMARE ([16]; 500 g ai/ha): 100
- phytotoxicity rating ECHCG ([17]; 125 g ai/ha): 20
- phytotoxicity rating ECHCG ([17]; 500 g ai/ha): 50
- phytotoxicity rating CASOB ([18]; 125 g ai/ha): 80
- phytotoxicity rating CASOB ([18]; 500 g ai/ha): 0
- phytotoxicity rating CHEAL ([19]; 125 g ai/ha): 50
- phytotoxicity rating CHEAL ([19]; 500 g ai/ha): 99
- phytotoxicity rating SETVI ([20]; 125 g ai/ha): 90
- phytotoxicity rating SETVI ([20]; 500 g ai/ha): 99
- phytotoxicity rating ABUTH ([21]; 125 g ai/ha): 0
- phytotoxicity rating ABUTH ([21]; 500 g ai/ha): 70
- phytotoxicity rating IPOHE ([22]; 125 g ai/ha): 0
- phytotoxicity rating IPOHE ([22]; 500 g ai/ha): 60
- crop damage rating RICE ([23]; 125 g ai/ha): 30
- crop damage rating RICE ([23]; 500 g ai/ha): 40
- crop damage rating CORN ([24]; 125 g ai/ha): 10
- crop damage rating CORN ([24]; 500 g ai/ha): 90
- SOY crop damage rating (0-100) ([25]; 63 g al/ha): 10
- SOY crop damage rating (0-100) ([25]; 500 g al/ha): 50

SMILES: Cc1nsc(Oc2cc(-n3c(=O)n4n(c3=S)CCCC4)c(F)cc2Cl)c1[N+](=O)[O-] [Compound 8-35]
- phytotoxicity rating SORHA ([1]; rate 500 g ai/ha, scale 0-100): 80
- phytotoxicity rating DIGSA ([2]; rate 63 g ai/ha): 0
- phytotoxicity rating DIGSA ([2]; rate 500 g ai/ha): 10
- phytotoxicity rating AMARE ([3]; rate 63 g ai/ha): 95
- phytotoxicity rating AMARE ([3]; rate 500 g ai/ha): 100
- phytotoxicity rating ECHCG ([4]; rate 63 g ai/ha): 0
- phytotoxicity rating ECHCG ([4]; rate 500 g ai/ha): 80
- phytotoxicity rating CHEAL ([5]; rate 63 g ai/ha): 80
- phytotoxicity rating CHEAL ([5]; rate 500 g ai/ha): 99
- phytotoxicity rating SETVI ([6]; rate 63 g ai/ha): 40
- phytotoxicity rating SETVI ([6]; rate 500 g ai/ha): 60
- phytotoxicity rating ABUTH ([7]; rate 63 g ai/ha): 100
- phytotoxicity rating ABUTH ([7]; rate 500 g ai/ha): 100
- phytotoxicity rating IPOHE ([8]; rate 63 g ai/ha): 40
- phytotoxicity rating IPOHE ([8]; rate 500 g ai/ha): 95
- phytotoxicity rating AMBEL ([9]; rate 63 g ai/ha): 10
- phytotoxicity rating AMBEL ([9]; rate 500 g ai/ha): 10
- crop damage rating RICE ([10]; rate 63 g ai/ha): 20
- crop damage rating RICE ([10]; rate 500 g ai/ha): 50
- crop damage rating CORN ([11]; rate 63 g ai/ha): 10
- crop damage rating CORN ([11]; rate 500 g ai/ha): 10
- SOY crop damage rating ([12]; Rate 125 g al/ha): 0
- SOY crop damage rating ([12]; Rate 500 g al/ha): 30
- SORHA phytotoxicity rating ([13]; Rate 125 g al/ha): 20
- SORHA phytotoxicity rating ([13]; Rate 500 g al/ha): 90
- AMBEL phytotoxicity rating ([14]; Rate 125 g al/ha): 50
- AMBEL phytotoxicity rating ([14]; Rate 500 g al/ha): 90
- DIGSA phytotoxicity rating ([15]; Rate 125 g al/ha): 0
- DIGSA phytotoxicity rating ([15]; Rate 500 g al/ha): 80
- AMARE phytotoxicity rating ([16]; Rate 125 g al/ha): 100
- AMARE phytotoxicity rating ([16]; Rate 500 g al/ha): 100
- ECHCG phytotoxicity rating ([17]; Rate 125 g al/ha): 10
- ECHCG phytotoxicity rating ([17]; Rate 500 g al/ha): 90
- CASOB phytotoxicity rating ([18]; Rate 125 g al/ha): 30
- CASOB phytotoxicity rating ([18]; Rate 500 g al/ha): 100
- CHEAL phytotoxicity rating ([19]; Rate 125 g al/ha): 100
- CHEAL phytotoxicity rating ([19]; Rate 500 g al/ha): 100
- SETVI phytotoxicity rating ([20]; Rate 125 g al/ha): 90
- SETVI phytotoxicity rating ([20]; Rate 500 g al/ha): 100
- ABUTH phytotoxicity rating ([21]; Rate 125 g al/ha): 100
- ABUTH phytotoxicity rating ([21]; Rate 500 g al/ha): 100
- IPOHE phytotoxicity rating ([22]; Rate 125 g al/ha): 50
- IPOHE phytotoxicity rating ([22]; Rate 500 g al/ha): 100
- RICE crop damage rating ([23]; Rate 500 g al/ha): 70
- CORN crop damage rating ([24]; Rate 125 g al/ha): 30
- CORN crop damage rating ([24]; Rate 500 g al/ha): 30
- crop damage rating SOY ([25]; rate 63 g ai/ha): 20
- crop damage rating SOY ([25]; rate 500 g ai/ha): 90
